Measured values from patent US8329413B2, “Glycoproteomic probes for fluorescent imaging of fucosylated glycans in vivo” (Academia Sinica, priority 2007, dated 2012).

How the values were obtained:
[1] = Decomposition of probe 1b by LC-MS; type: physicochemical
Description: Bicyclic aromatic azides are known to easily decompose by thermolysis or photolysis through a highly reactive nitrene intermediate (FIG. 12).
Thus we analyzed the decomposition of 1b using LC-MS (FIG. 13). […] The compounds were monitored at 350 nm by using an Agilent SB C8 50×4.6 mm column. (a) 1b. (b) Cycloaddition reaction with 7. (c) After 12 h incubation without 7. (d) The synthesized 4-amino derivative 1c (1). See typical experimental procedure of cycloaddition for the reaction conditions.
In the presence of 6-alkyne fucose 2b, probe 1b was completely converted into the product 3b. However, without 6-alkyne fucose […], probe 1b decomposed into a fluorescent compound with a molecular weight corresponding to the 4-amino derivative 1c ([M+H]^+ 241; ca. 80% conversion after 12 h incubation at room temperature).

[2] = system: human alpha1-acid glycoprotein (AGP); test: Fluorescent labeling of AGP fucosylated by FucT V, SDS/PAGE visualized by UV light; type: biochemical; conditions: AGP fucosylated with FucT V and GDP-fucose analog 8, 9 or 10, then labeled with 1a or 1b
Excerpt: (§1) Briefly, fucose analogs 4 and 5 are converted to the corresponding 1-bromides, which then are substituted directly by a phosphate group. […] Therefore, TiBr4 is used instead, as described by Srivastava. The fucose-1-phosphates are converted to the corresponding GDP-fucose analogs by using 1H-tetrazole as a catalyst. The tolerability of GDP-fucose analogs 8 and 9 for human alpha-1,3-fucosyltranseferases (FucTs) II-VII is confirmed by using a standard microtiter plate assay. They are then used to elaborate the glycoconjugate substrate, human alpha1-acid glycoprotein (AGP), an acute-phase protein. As fucosylation of AGP is associated with inflammatory diseases, the degree of fucosylation of AGP could be a potential diagnostic or prognostic marker. AGP was fucosylated by using FucT V in the presence of GDP-fucose analogs 8 or 9. After gel filtration, the fucosylated AGP is labeled by using the corresponding naphthalimide 1a or 1b for 4 h at room temperature. Labeled protein is analyzed by SDS/PAGE and visualized by UV light (365 nm). […] Treated protein was separated by SDS/PAGE and visualized by UV light (Top) and Coomassie blue staining (CBB) (Middle). (Bottom) Modified GDP-fucose.
Human alpha1-acid glycoprotein (0.33 mg/mL), pretreated with alpha-fucosidase, was incubated with human alpha-1,3-fucosyltransferase V (100 mU/mL) in MOPS buffer (50 mM, pH 7.2) containing 150 mM NaCl, 10 mM MnCl2, 4 mM ATP, 0.2 mM GDP-fucose analog (8-10). After incubation at 37° C. for 8 h, additional GDP-fucose derivative (final 0.4 mM) was added and the reaction mixture was incubated at 37° C. for 12 h. […]
The fucosylated glycoconjugate was dissolved in HEPES buffer (50 mM, pH 7.6), and added to a solution containing CuSO4 (0.2 mM), 1.0 mM sodium ascorbate, the tris(triazolyl)amine ligand (20) (0.2 mM, stock in DMSO), and the appropriate naphthalimide ligation probe 1a or 1b (0.1 mM, stock in DMSO, final concentration of DMSO; 10%)). After 1 h at room temperature, the mixture was passed through NAP-5 column in water and lyophilized, and analyzed by SDS-PAGE.

[3] = Fluorescence spectra and quantum yields of probes and click products; type: physicochemical; conditions: before click reaction
Description: Reactivity and click-activated fluorogenic properties of compounds 1a and 1b were tested by performing a Cu(I)-catalyzed azide-alkyne [3+2] cycloaddition (CuAAC) with model fucose analogs 2a and 2b, respectively, as shown in FIG. 3. […] As expected, the ligation reactions produced in a significant increase in fluorescence intensity. The emission maximum of 3a was 462 nm with a quantum yield of 0.36 when excited at 357 nm. […] Unfortunately, the reaction rate between alkyne probe 1a and azidofucose 2a was very slow. Although the reaction of azido probe 1b was completed in <30 min. only 10% of 1a was converted to 3a after 24 h by using the same conditions (monitored by LC-MS). […]
All chemicals were purchased as reagent grade and used without further purification. Reactions were monitored with analytical thin-layer chromatography (TLC) on silica gel 60 F254 plates and visualized under UV (254 nm) and/or by staining with 5% sulfuric acid or acidic ceric ammonium molybdate. ^1H— or ^13C-NMR spectra were measured on a Bruker DRX-500 or DRX-600 using CDCl3 or DMSO-d6 as the solvent (1H, 500 or 600 MHz; ^13C, 125 or 150 MHz). Chemical shifts (in ppm) were determined relative to either tetramethylsilane (0 ppm) or deuterated chloroform (77 ppm). […] Fluorescent excitation and emission were recorded using a HITACHI F-2000 fluorescence spectrophotometer. […]

[4] = system: human alpha-1,3-fucosyltranseferases (FucTs) II-VII; test: Standard microtiter plate assay of tolerability of GDP-fucose analogs for fucosyltransferases; type: biochemical
Excerpt: as §1

Row | SMILES | decomposition to 4-amino derivative 1c, conversion ([1]; after 12 h incubation at room temperature, without 6-alkyne fucose) | stability of probe during labeling ([1]; during AGP labeling reaction) | fluorescent band of labeled AGP on SDS/PAGE under UV light (365 nm) [2] | fluorescence of parent probe [3] | tolerability as substrate for FucTs [4]
1 | CCN1C(=O)c2cccc3c(N=[N+]=[N-])ccc(c23)C1=O [Compound 1b, 4-Azido-N-ethyl-1,8-naphthalimide] | ca. 80% | slowly decomposed into a strongly fluorescent 4-amino derivative | clear fluorescent bands | no fluorescence | –
2 | C#C[C@@H]1O[C@H](OP(=O)(O)OP(=O)(O)OC[C@H]2O[C@@H](n3cnc4c(=O)[nH]c(N)nc43)[C@H](O)[C@@H]2O)[C@@H](O)[C@H](O)[C@@H]1O.CCN(CC)CC [Compound 8, Guanosine 5′-diphospho-6,7-deoxy-beta-L-galacto-hept-6-ynopyranoside triethylammonium salt] | – | – | – | – | confirmed
